≈ marks a conversion by molar mass, not a printed value. Entries after “also recorded” stand apart in the source; their conditions may differ.

The text below walks through data of patent US20210214303A1, “SCORPION VENOM BENZOQUINONE DERIVATIVES AND USES THEREOF” (priority 2018, published 2021).

Assay [1] relates to Mycobacterium tuberculosis multi-drug resistant (MDR) strain. Description: microbe, parasite or virus in culture. In kind it is cell-based.
For assay [2], the system named is Mycobacterium tuberculosis Multi-Drug-Resistance (MDR) CIBIN99 strain. The assay is described as follows: experimental model of progressive pulmonary tuberculosis. Further details: species or system BALB/c mice. Conditions: mouse, in vivo.

Take `COC1=CC(=O)C(SC)=C(OC)C1=O` [red 1,4 benzoquinone, 3,5-dimethoxy-2-(methylthio)cyclohexa-2,5-diene-1,4-dione]: the MIC in assay [1] is > 160 µg/mL.
In turn, `COC1=CC(=O)C(SC)=C(SC)C1=O` [blue 1,4 benzoquinone, 5-methoxy-2,3-bis(methylthio)cyclohexa-2,5-diene-1,4-dione] registered an MIC in assay [1] of 4 µg/mL (≈ 17.4 µM). In assay [2], the “condition of infected mice / overall effect” value is “effective in vivo; also recorded: improvement by not losing weight and not showing piloerection; also recorded: marked improvement in their condition”; the “reduction of pneumonia (automated histomorphometry, lung surface affected by pneumonia)” value stood at 50%; the “tissue damage (pneumonia), histology” value is “less pneumonia; also recorded: clear decrease in tissue damage; also recorded: twofold decrease”.
